The record followed here is US11149054B2, “Oxysterols and methods of use thereof” (Sage Therapeutics, Inc., priority 2016, dated 2021).

SMILES strings stand for the structures. Read-outs that look alike come from different tables or passages of the source. Bounds are passed on as bounds.

In assay [1] the target is GlunN1/GluN2A glutamate receptors (Homo sapiens (Human), UniProt Q05586+Q12879). Put plainly: Whole-cell patch clamp of mammalian cells (Ionworks Barracuda), positive allosteric modulation, GluN1/GluN2A. The format is cell-based. The method in brief:
(§1)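 Perforated-patch whole-cell recording, holding −70 mV, −40 mV during application; Cs-based internal pH 7.2, external with 5 mM CaCl2 pH 7.4. Test article pre-applied alone 5 min, then co-applied with EC20 L-glutamate plus 30 μM glycine. EC50 from Hill fit of % activation over the EC20 current.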
In general terms: In patch-clamp work, channel activity is measured electrically.

Assay [2] has as its target GluN2B glutamate receptors (Homo sapiens (Human), UniProt Q05586+Q13224). Put plainly: Whole-cell patch clamp of mammalian cells (Ionworks Barracuda), positive allosteric modulation, GluN2B. The settings on record: for Emax: read-out: Avg Emax 2B (%). The class given is cell-based. A digest of the protocol:
as §1

The mark [3] stands for this setting: HEK293 cells, % potentiation of current elicited with EC20 L-glutamate and 30 μM glycine, read-out: Avg Emax 2A (%).
Where [4] appears, read: % potentiation of current elicited with EC20 L-glutamate and 30 μM glycine.
Where [5] appears, read: HEK293 cells, co-application with EC20 L-glutamate and 30 μM glycine, 8-point concentration-response, read-out: Avg EC50 2A.
[6] abbreviates: co-application with EC20 L-glutamate and 30 μM glycine, 8-point concentration-response, read-out: Avg EC50 2B.

GluN2B glutamate receptors, sequence (Q13224 27-1484, other chains not shown): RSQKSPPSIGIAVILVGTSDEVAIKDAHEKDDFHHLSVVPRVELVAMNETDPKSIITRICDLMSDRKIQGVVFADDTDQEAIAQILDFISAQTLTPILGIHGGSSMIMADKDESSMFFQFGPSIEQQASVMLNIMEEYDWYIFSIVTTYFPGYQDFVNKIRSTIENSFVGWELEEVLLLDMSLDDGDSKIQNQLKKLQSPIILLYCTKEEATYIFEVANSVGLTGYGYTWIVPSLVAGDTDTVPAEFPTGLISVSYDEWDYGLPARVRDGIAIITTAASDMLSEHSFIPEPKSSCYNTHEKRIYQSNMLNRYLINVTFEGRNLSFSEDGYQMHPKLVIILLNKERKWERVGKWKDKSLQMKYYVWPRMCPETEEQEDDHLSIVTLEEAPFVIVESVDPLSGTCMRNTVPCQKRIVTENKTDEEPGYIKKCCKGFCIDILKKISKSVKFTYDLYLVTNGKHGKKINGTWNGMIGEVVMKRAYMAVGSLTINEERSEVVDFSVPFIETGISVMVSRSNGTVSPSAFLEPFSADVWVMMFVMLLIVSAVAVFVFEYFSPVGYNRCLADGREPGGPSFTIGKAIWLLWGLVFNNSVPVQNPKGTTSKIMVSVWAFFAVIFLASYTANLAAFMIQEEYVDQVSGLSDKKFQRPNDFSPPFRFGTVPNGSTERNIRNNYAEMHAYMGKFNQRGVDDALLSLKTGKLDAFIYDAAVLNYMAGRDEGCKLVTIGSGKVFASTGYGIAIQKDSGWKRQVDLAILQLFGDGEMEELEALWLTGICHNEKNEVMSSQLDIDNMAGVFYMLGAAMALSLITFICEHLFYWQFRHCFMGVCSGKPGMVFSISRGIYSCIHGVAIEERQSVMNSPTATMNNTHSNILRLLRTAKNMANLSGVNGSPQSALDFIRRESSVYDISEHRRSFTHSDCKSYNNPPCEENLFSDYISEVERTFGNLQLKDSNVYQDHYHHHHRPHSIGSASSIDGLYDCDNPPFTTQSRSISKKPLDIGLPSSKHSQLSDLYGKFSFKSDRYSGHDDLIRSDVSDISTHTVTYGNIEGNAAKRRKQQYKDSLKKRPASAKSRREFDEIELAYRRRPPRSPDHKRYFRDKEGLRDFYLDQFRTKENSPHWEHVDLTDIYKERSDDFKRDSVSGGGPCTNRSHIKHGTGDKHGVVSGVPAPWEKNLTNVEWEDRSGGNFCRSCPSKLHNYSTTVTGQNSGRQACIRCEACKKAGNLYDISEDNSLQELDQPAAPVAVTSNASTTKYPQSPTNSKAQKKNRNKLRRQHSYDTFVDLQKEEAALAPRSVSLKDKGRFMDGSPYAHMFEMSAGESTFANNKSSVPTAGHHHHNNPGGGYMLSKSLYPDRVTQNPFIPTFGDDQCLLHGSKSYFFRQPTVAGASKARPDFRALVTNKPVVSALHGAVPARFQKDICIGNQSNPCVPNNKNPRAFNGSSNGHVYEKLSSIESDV
GlunN1/GluN2A glutamate receptors, sequence (Q12879 23-1464, other chains not shown): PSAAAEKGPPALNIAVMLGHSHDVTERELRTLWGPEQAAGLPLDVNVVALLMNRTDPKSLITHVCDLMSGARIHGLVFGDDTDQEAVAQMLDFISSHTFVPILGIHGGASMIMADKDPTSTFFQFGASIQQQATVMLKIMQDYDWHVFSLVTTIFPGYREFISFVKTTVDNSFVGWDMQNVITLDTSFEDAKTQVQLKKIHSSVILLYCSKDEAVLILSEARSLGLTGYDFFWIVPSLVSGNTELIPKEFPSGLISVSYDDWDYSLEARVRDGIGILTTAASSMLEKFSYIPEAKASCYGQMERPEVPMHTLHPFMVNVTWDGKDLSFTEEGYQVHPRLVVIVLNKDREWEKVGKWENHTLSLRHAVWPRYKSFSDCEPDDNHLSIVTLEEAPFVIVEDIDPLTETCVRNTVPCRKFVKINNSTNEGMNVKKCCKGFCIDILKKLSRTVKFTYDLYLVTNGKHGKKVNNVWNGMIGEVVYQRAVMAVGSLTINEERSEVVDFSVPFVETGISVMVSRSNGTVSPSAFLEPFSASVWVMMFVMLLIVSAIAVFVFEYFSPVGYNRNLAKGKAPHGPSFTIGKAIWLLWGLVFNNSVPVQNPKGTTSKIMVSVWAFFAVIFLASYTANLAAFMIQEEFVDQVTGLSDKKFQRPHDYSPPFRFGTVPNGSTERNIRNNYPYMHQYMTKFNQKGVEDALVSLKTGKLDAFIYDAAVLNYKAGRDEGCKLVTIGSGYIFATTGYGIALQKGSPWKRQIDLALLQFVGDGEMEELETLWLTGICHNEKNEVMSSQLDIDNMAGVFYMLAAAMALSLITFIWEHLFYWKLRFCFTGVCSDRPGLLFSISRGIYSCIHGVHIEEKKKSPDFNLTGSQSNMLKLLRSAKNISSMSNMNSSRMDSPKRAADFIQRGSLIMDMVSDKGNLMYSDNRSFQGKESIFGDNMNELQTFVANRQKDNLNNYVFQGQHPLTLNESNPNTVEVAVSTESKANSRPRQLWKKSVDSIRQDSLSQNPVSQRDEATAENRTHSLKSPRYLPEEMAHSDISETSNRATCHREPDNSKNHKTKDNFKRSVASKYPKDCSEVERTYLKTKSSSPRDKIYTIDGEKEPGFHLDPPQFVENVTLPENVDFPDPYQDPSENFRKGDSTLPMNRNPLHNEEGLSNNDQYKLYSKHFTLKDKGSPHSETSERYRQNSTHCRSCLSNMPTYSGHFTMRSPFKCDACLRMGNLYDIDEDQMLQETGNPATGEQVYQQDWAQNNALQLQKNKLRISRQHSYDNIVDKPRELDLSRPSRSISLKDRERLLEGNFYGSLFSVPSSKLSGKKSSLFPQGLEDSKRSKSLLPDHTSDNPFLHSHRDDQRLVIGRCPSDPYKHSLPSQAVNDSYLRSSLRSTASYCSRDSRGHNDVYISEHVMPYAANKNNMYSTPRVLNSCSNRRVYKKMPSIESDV

One may read the EC50 as the concentration giving half of the maximal effect. The term Emax denotes the greatest response seen or fitted, relative to the assay's reference. For `C[C@H](CCC1(O)CCC(C)(C)CC1)[C@H]1CC[C@H]2[C@@H]3CC=C4C[C@](O)(C(F)(F)F)CC[C@]4(C)[C@H]3CC[C@]12C` [Compound 4799], the 50% effective concentration (EC50) in assay [1] is greater than 10000 nM; in assay [2], 760 nM. The figures for the Emax in assay [1] (setting [3]) and in assay [2] (setting [4]) were 36.1% and 32.8%, respectively.

Regarding `C[C@H](CCC1(O)CCC2(CC1)CC2)[C@H]1CC[C@H]2[C@@H]3CC[C@H]4C[C@](O)(C(F)(F)F)CC[C@]4(C)[C@H]3CC[C@]12C` [Compound 4805], the half-maximal effective concentration (EC50) in assay [1] came out at 356 nM; in assay [2], 362 nM. Also, the Emax in assay [1] (setting [3]) is 175%; in assay [2] (setting [4]) it was 129%.

Turning to `CCC1(C)CCC(O)(CC[C@@H](C)[C@H]2CC[C@H]3[C@@H]4CC[C@H]5C[C@](O)(C(F)(F)F)CC[C@]5(C)[C@H]4CC[C@]23C)CC1` (stereo partly drawn) [Compound 4906], the Emax in assay [1] (setting [3]) is 8.8%; in assay [2] (setting [4]), 14.8%. Further, the EC50 in assay [1] (setting [5]) and in assay [2] (setting [6]) was greater than 10000 nM throughout.

Consider `C[C@H](CCC1(O)CCC2(CC1)COC2)[C@H]1CC[C@H]2[C@@H]3CC[C@H]4C[C@](O)(C(F)(F)F)CC[C@]4(C)[C@H]3CC[C@]12C` [Compound 5009], for which the concentration for a half-maximal effect (EC50) in assay [1] and in assay [2] was greater than 10000 nM throughout. The Emax in assay [1] (setting [3]) stood at 27.5%; in assay [2] (setting [4]), 14.5%.

Take `C[C@H](CCCC(C)(C)O)[C@H]1CC[C@H]2[C@@H]3CC[C@H]4C[C@](O)(C(F)(F)F)CC[C@]4(C)[C@H]3CC[C@]12C` [Compound 5116]: the Emax in assay [1] (setting [3]) was 185%; in assay [2] (setting [4]), 214%. In addition, the EC50 is 102 nM in assay [1] (setting [5]) and 130 nM in assay [2] (setting [6]).

On to `C[C@H](CCC1(O)CCC(OC(F)F)CC1)[C@H]1CC[C@H]2[C@@H]3CC[C@H]4C[C@](O)(C(F)(F)F)CC[C@]4(C)[C@H]3CC[C@]12C` (stereo partly drawn) [Compound 5131], for which the maximal effect (Emax) in assay [1] (HEK293, read-out: Avg Emax 2A (%)) is 52.9%; in assay [2], 39%.

Regarding `C[C@H](CCC1(O)CCC(C)(C)CC1)[C@H]1CC[C@H]2[C@@H]3CC[C@@H]4C[C@](O)(C(F)(F)F)CC[C@]4(C)[C@H]3C(=O)C[C@]12C` [Compound 5294], the values for the Emax in assay [1] (setting [3]) and in assay [2] (setting [4]) were 32.4% and 13.9%, respectively.

As for `CC[C@]1(O)CC[C@@]2(C)C(=CC[C@H]3[C@@H]4CC[C@H]([C@H](C)CCC(O)Cc5ccccc5)[C@@]4(C)CC[C@@H]32)C1` (stereo partly drawn) [Compound 6010], the concentration giving a half-maximal response (EC50) in assay [1] was found to be 1100 nM; in assay [2], 1570 nM. In addition, the results for the maximal response (Emax) in assay [1] (setting [3]) and in assay [2] (setting [4]) were 239% and 184%, respectively.

Consider `CC[C@]1(O)CC[C@@]2(C)C(=CC[C@H]3[C@@H]4CC[C@H]([C@H](C)CC[C@H](O)Cc5ccccc5)[C@@]4(C)CC[C@@H]32)C1` [Compound 6051], for which the EC50 in assay [1] was 500 nM; in assay [2] it was 1260 nM. Further, the Emax was 293% in assay [1] (setting [3]) and 292% in assay [2] (setting [4]).

For the compound `CC[C@]1(O)CC[C@@]2(C)C(=CC[C@H]3[C@@H]4CC[C@H]([C@H](C)CC[C@@H](O)Cc5ccccc5)[C@@]4(C)CC[C@@H]32)C1` [Compound 6052], the EC50 was found to be 426 nM in assay [1] and 232 nM in assay [2]. Moreover, the Emax was 102% in assay [1] (setting [3]) and 92.2% in assay [2] (setting [4]).

Turning to `CC[C@]1(O)CC[C@@]2(C)C(=CC[C@H]3[C@@H]4CC[C@H]([C@H](C)CC[C@H](O)c5ccccn5)[C@@]4(C)CC[C@@H]32)C1` [Compound 6347], the EC50 in assay [1] amounted to 268 nM; in assay [2], 311 nM. For the same compound, the figures for the maximal response (Emax) in assay [1] (setting [3]) and in assay [2] (setting [4]) were 64.7% and 132%, respectively.

On to `CC[C@]1(O)CC[C@@]2(C)C(=CC[C@H]3[C@@H]4CC[C@H]([C@H](C)CC[C@@H](O)c5ccccn5)[C@@]4(C)CC[C@@H]32)C1` [Compound 6348], for which the EC50 in assay [1] was found to be 260 nM; in assay [2], 663 nM. The results for the maximal effect (Emax) in assay [1] (setting [3]) and in assay [2] (setting [4]) were 79.7% and 133%, respectively.

Take `CC[C@]1(O)CC[C@@]2(C)C(=CC[C@H]3[C@@H]4CC[C@H]([C@H](C)CCC(O)c5ccccn5)[C@@]4(C)CC[C@@H]32)C1` (stereo partly drawn) [Compound 6457]: the EC50 in assay [1] amounted to 732 nM; in assay [2], 524 nM. Further, the Emax in assay [1] (setting [3]) came out at 198%; in assay [2] (setting [4]) it was 168%.

With `CC[C@]1(O)CC[C@@]2(C)C(=CC[C@H]3[C@@H]4CC[C@H]([C@H](C)CC[C@H](O)c5cccnc5)[C@@]4(C)CC[C@@H]32)C1` [Compound 6458], the EC50 in assay [1] was greater than 10000 nM; in assay [2], 929 nM. Moreover, the Emax is 30.9% in assay [1] (setting [3]) and 79.4% in assay [2] (setting [4]).

Turning to `CC[C@]1(O)CC[C@@]2(C)C(=CC[C@H]3[C@@H]4CC[C@H]([C@H](C)CC[C@@H](O)c5cccnc5)[C@@]4(C)CC[C@@H]32)C1` [Compound 6459], the EC50 in assay [1] is 1330 nM; in assay [2] it was 909 nM. In addition, the Emax in assay [1] (setting [3]) was 156%; in assay [2] (setting [4]), 184%.

For the compound `CC[C@]1(O)CC[C@@]2(C)[C@@H](CC[C@@H]3[C@@H]2CC[C@]2(C)[C@@H]([C@H](C)CCC(O)c4ccccc4)CC[C@@H]32)C1` (stereo partly drawn) [Compound 6544], the values for the EC50 in assay [1] and in assay [2] were 559 nM and 498 nM, respectively. For the same compound, the Emax worked out at 253% in assay [1] (setting [3]) and 415% in assay [2] (setting [4]).

Consider `CC[C@]1(O)CC[C@@]2(C)[C@@H](CC[C@@H]3[C@@H]2CC[C@]2(C)[C@@H]([C@H](C)CC[C@@H](O)c4ccccc4)CC[C@@H]32)C1` [Compound 6571], for which the concentration giving a half-maximal response (EC50) in assay [1] came to 190 nM; in assay [2], 267 nM. In addition, the figures for the Emax in assay [1] (setting [3]) and in assay [2] (setting [4]) were 158% and 241%, respectively.

As to `CC[C@]1(O)CC[C@@]2(C)[C@@H](CC[C@@H]3[C@@H]2CC[C@]2(C)[C@@H]([C@H](C)CC[C@H](O)c4ccccc4)CC[C@@H]32)C1` [Compound 6572], the 50% effective concentration (EC50) is 378 nM in assay [1] and 1340 nM in assay [2]. Besides, the Emax worked out at 129% in assay [1] (setting [3]) and 251% in assay [2] (setting [4]).

With `CC[C@]1(O)CC[C@@]2(C)[C@@H](CC[C@@H]3[C@@H]2CC[C@]2(C)[C@@H]([C@H](C)CC[C@H](O)c4cccnc4)CC[C@@H]32)C1` [Compound 6754], the results for the maximal effect (Emax) in assay [1] (setting [3]) and in assay [2] (setting [4]) were 22.3% and 38.8%, respectively. The concentration giving a half-maximal response (EC50) in assay [1] (setting [5]) and in assay [2] (setting [6]) was greater than 10000 nM throughout.

With `CC[C@]1(O)CC[C@@]2(C)[C@@H](CC[C@@H]3[C@@H]2CC[C@]2(C)[C@@H]([C@H](C)CC[C@@H](O)c4cccnc4)CC[C@@H]32)C1` [Compound 6755], the EC50 in assay [1] and in assay [2] was greater than 10000 nM in each case. The Emax in assay [1] (setting [3]) was 22.8%; in assay [2] (setting [4]), 44.2%.

In the case of `CC[C@]1(O)CC[C@@]2(C)C(=CC[C@H]3[C@@H]4CC[C@H]([C@H](C)CC[C@H](O)c5cccc(F)c5)[C@@]4(C)CC[C@@H]32)C1` [Compound 6896], the EC50 came to 519 nM in assay [1] and 1680 nM in assay [2]. Besides, the maximal effect (Emax) came to 216% in assay [1] (setting [3]) and 402% in assay [2] (setting [4]).

As to `CC[C@]1(O)CC[C@@]2(C)C(=CC[C@H]3[C@@H]4CC[C@H]([C@H](C)CC[C@@H](O)c5cccc(C#N)c5)[C@@]4(C)CC[C@@H]32)C1` [Compound 6997], the half-maximal effective concentration (EC50) in assay [1] stood at 373 nM; in assay [2] it was 414 nM. The maximal effect (Emax) in assay [1] (setting [3]) was 327%; in assay [2] (setting [4]) it was 315%.
